Measured values from ChEMBL document CHEMBL1156390, “Phyllanemblinins A-F, new ellagitannins from Phyllanthus emblica” (J Nat Prod, 2001).
Calls of active or inactive are those of the source. No cut-off for these calls is given here.

Tested on: Radical scavenging activity
Assay: Antioxidant activity assessed as DPPH radical scavenging activity
Format: functional

SMILES | Activity
O=C(O)C[C@@H]1C(=O)O[C@H]2[C@@H]3OC(=O)c4cc(O)c(O)c(O)c4-c4c(cc(O)c(O)c4O)C(=O)OC[C@H]2O[C@@H](OC(=O)c2cc(O)c(O)c(O)c2)[C@@H]3OC(=O)c2cc(O)c(O)c3c2[C@H]1[C@H](O)C(=O)O3 | Active
O=C(O)C[C@@H]1C(=O)O[C@H]2[C@@H]3OC(=O)c4cc(O)c(O)c(O)c4-c4c(cc(O)c(O)c4O)C(=O)OC[C@H]2O[C@@H](OC(=O)c2cc(O)c(O)c(O)c2)[C@@H]3OC(=O)c2cc(O)c(O)c3c2[C@H]1[C@@](O)(C(=O)O)O3 | Active
